This note sets out measurements from patent US20230105693A1, “ANTIMICROBIAL COMPOSITIONS” (Firmenich SA, priority 2020, published 2023).

A short description of data set [1]: Equivalent alkane carbon number (EACN) in model microemulsion system. It counts as physicochemical. The settings on record: C10E5/water/isopropyl myristate model system, 3% wt perfume ingredient. How it is done:
EACN values provide information on polarity and surface activity of apolar ingredients. Tchakalova and Fieber (J. of Surfactants and Detergents, 2012, 15(2):167-177) classified perfume ingredients based on values of EACNmix, the EACN of a mixture consisting of a test perfume ingredient and a reference oil (isopropyl myristate). The same model system and method were used to measure the EACN values of perfume ingredients with antimicrobial activities. Different perfume ingredients were added to the model microemulsion system shown in Table 1, in which the nonionic pentaethylene glycol mono n-decyl ether (C10E5) was used as surfactant. Phase transition temperatures of the system from Winsor I to Winsor III, and from Winsor III to Winsor II were determined using a water bath. Alkanes with different alkane carbon numbers (octane, decane, dodecane and hexadecane) were used to establish a linear correlation curve between EACN and the PIT, which is the average of the transitions from Winsor I to Winsor III, and from Winsor III to Winsor II, respectively. EACNmix was then calculated based on the linear relationship and the measured PIT for systems containing different perfume ingredients. The EACN of the pure perfume ingredient was calculated based on the molar ratio of the tested PRMs in the oil phase using following equation: […]
wherein n and nref are the molar fractions of tested perfume ingredient and the reference ingredient (i.e., isopropyl myristate) in the oil phase, respectively.

The subject of data set [2] is Escherichia coli ATCC 10536. Kind of data set: Robotic BCT test of perfume ingredients in model surfactant bases. It is filed as cell-based. The settings on record: for log reduction at 0.5 %: Escherichia coli, ATCC10536, 45 s; for Log reduction (Log CFU/mL) Base 3: Base 3: SLES 1.5%, coco-glucoside 0.75%; for Log reduction (Log CFU/mL) Base 4: Base 4: SLES 2.25%, sodium xylene sulfonate 3%. How it is done:
The surfactant bases tested included 1) sodium lauryl ether sulfate (SLES) and cocamidopropyl betaine (CAPB) at 3:1 mass ratios; 2) SLES, CAPB and coco-glucoside at 2:1:1 mass ratios. Test samples were prepared by mixing perfume ingredients with the surfactant bases and vigorously stirred for 24 hrs. Concentration of perfume ingredients in the bases was 0.5% wt. Samples with transparent appearance were selected for antimicrobial testing.
Antimicrobial efficacy was tested against a representative Gram-negative bacterial strain, Escherichia coli ATCC 10536, using robotic bacteria contact time (BCT) test based on European standard EN-1276 and EP2787827(B1).
Preparation of screening plate and dilution plate: Aliquots (270 µl) of compositions were dispensed into the wells of a 96-well microtiter plate (MTP) along two columns (B1-H1, and B7-H7), and 270 µl of MilliQ water was added to well A1 and A7 as the control samples. This MTP was labelled as the “Screening plate”. In another MTP, labelled as the “Dilution plate”, 270 µL of Dey-Engley (D/E) neutralizing solution was added to column 1 and column 7. 270 µl of tryptone diluent solution was added to columns 2-6 and columns 8-12 of the Dilution MTP by a Hamilton robotic liquid handling station.
BCT test & neutralization & dilution: Bacterial stock (30 µl) was then added to columns 1 of the ‘Screening plate’ and mixed by a Hamilton robotic liquid handling station. After a contact time of 45 seconds, 30 µl of the mixtures in column 1 were transferred into the corresponding wells of column 1 of the ‘Dilution plate’. After neutralizing for 5 minutes in the D/E neutralizing solution, 30 µl of the neutralized mixtures were transferred from column 1 to column 2 of the Dilution MTP and mixed, followed by transferring 30 µl of the mixtures from column 2 into column 3. This process was repeated serially diluting the bacteria suspensions across the plate to column 6. Bacterial stock (30 µl) was then added to columns 7 of the ‘Screening plate’ and mixed by a Hamilton robotic liquid handling station. After a contact time of 45 seconds, 30 µl of the mixtures in column 7 were transferred into the corresponding wells of column 7 of the ‘Dilution plate’. After neutralizing for 5 minutes in the D/E neutralizing solution, 30 µl of the mixtures were transferred from column 7 to column 8 of the Dilution MTP and mixed, followed by transferring further 30 µl mixtures from column 8 into column 9. This process was repeated serially diluting the bacteria suspensions across the plate to column 12.
Plating: 30 µl volumes from each well in the Dilution MTP were transferred onto four Tryptone Soya Agar (TSA) plates. The TSA plates were allowed to stand for about two hours so that the 30 µl inocula spots could dry and the plates were then inverted and incubated overnight at 37° C. for 24 hours. After incubation, colonies were counted.
Calculating log reduction: Select the dilutions with colony counts, and calculate the viable cell counts (CFU/mL) of mixture in ‘Screening plate’, and log reduction against the control MilliQ sample was calculated.

The subject of data set [3] is E. coli ATCC 10536. Kind of data set: Bacterial contact time (BCT) test of perfume ingredients in 20% ethanol solution (EN-1276 based). The settings on record: 20% EtOH, 45 s. It is filed as cell-based, Escherichia coli. The method, then:
Bacterial suspensions of E. coli ATCC 10536 were prepared for antimicrobial testing as follows. Stock cultures stored at -80° C. were sub-cultured onto Tryptic Soy Agar (TSA) plate, and incubated at 37° C. for 24 h to obtain single colonies. Single colonies of the primary cultures were streaked onto TSA plates and incubated at 37° C. for 24 h to prepare the secondary cultures. Single colonies of secondary cultures were inoculated into 50 mL of Tryptic Soy broth (TSB), incubated at 37° C. 180 rpm for 18 h. Aliquots (0.5 ml) of the 18 h culture were inoculated into 50 ml of fresh TSB, and incubated at 37° C. 180 rpm for 2- 3 hours. When the OD600 nm value of the broth reached 1-2, cells were harvested by centrifugation at 5,000 rpm for 10 min, and then resuspended in the same fresh broth media to achieve the target level of 1-5 × 10^8 colony forming unit (CFU)/mL. This suspension was used for further antimicrobial tests.
Unless indicated otherwise, log reduction testing according to the present invention is determined in accordance with the following method.
Bacterial contact time (BCT) test based on European standard EN-1276 was used to determine dose dependent bactericidal activity of perfume ingredients in 20% ethanol solutions.
Perfume ingredients of various concentrations (doses) were prepared in 40% ethanol solutions. Eleven replicates of each sample were added into 96-well microtiter plates (120 µl per well) in column 1-11 of one row, with row B as the control sample of the ethanol solution. Then, 120 µl of cell suspension at a concentration of approximately 1-5 × 10^8 CFU/ML (as prepared above) were added to each well of the microtiter plate. A specified contact time (45 s) was allowed for target bacterial strains. At the end of the contact time, serial dilutions were prepared in 96 well plates with growth media: 3 times of 1 in 10 dilutions and followed by 17 times of 1 in 2 dilutions. Each plate was sealed and incubated at 37° C. under agitation (180 rpm). After incubation, turbidity of the wells (OD 600 nm) was recorded by Tecan microplate reader. Turbid cells were regarded as positive growth of viable cells. The total number of viable cells (log CFU/mL) for each sample was calculated. And the log reduction for each test composition at the final concentration (dose) was calculated against the control sample of the 20% ethanol solution.
Table 20 show the bactericidal dose related effect (log reduction) and calculated effect fraction of the Mixture C and compositions against E. coli ATCC 10536. Stock of compositions were prepared in 100% ethanol, then diluted in MilliQ water to obtain 2 × final concentration in 40% ethanol. BCT tests were conducted on samples against E. coli for a contact time of 45 s.

Setting [4] is: 0.5% perfume ingredient, Base 1: SLES 1.875%, CAPB 0.625%, contact 45 s, read-out: Log reduction in Base 1 (Log CFU/mL).
Where [5] appears, read: model base 1, table by functional group, read-out: Log reduction in Base 1 (Log CFU/mL).
Setting [6] is: 0.5% perfume ingredient, CAPB 0.75%, contact 45 s.
The mark [7] stands for this setting: 0.5% perfume ingredient, Base 2: SLES 2.25%, CAPB 0.75%, contact 45 s, read-out: Log reduction (Log CFU/mL) Base 2.

Where a name gives a salt, the structure may show the parent alone. Read-outs that look alike come from different tables or passages of the source. Bounds are passed on as bounds.

For `CCCc1ccc2c(c1)OCC(=O)CO2` [7-propyl-2H,4H-1,5-benzodioxepin-3-one], the EACN in data set [1] is reported as -40.99. Besides, the log reduction at 0.5 % in data set [2] (setting [4]) amounted to 0.

Take `CC1=CC(C)C(CO)C(C)C1` (racemic) [(+-)-2,4,6-trimethyl-3-cyclohexene-1-methanol]: the EACN in data set [1] is on record as -25.02.

Consider `CCCCC(CC)CO` (stereo not drawn) [2-ethyl-1-hexanol], for which the Effect fraction is 0.050 in data set [3] (dose 0.060% w/v); 0.100 in data set [3] (dose 0.065% w/v); 0.290 in data set [3] (dose 0.070% w/v); 0.510 in data set [3] (dose 0.075% w/v); 0.800 in data set [3] (dose 0.080% w/v). Besides, the Log reduction in data set [3] (dose 0.060% w/v) is 0.367; in data set [3] (dose 0.065% w/v), 0.728; in data set [3] (dose 0.070% w/v), 2.052; in data set [3] (dose 0.075% w/v), 3.678; in data set [3] (dose 0.080% w/v), 5.760. The EACN in data set [1] is on record as -22.63. Also, the log reduction at 0.5 % in data set [2] (setting [4]) and in data set [2] (setting [5]) was 3.6 each time.

For the compound `CC(=O)OC(C)c1ccccc1` (racemic) [(+-)-1-phenylethyl acetate], the EACN in data set [1] is listed as -0.99. In data set [2] (setting [6]), the “Log reduction (Log CFU/mL) Base 3” value is 0.2 Log CFU/mL and the “Log reduction (Log CFU/mL) Base 4” value was “Insoluble”. Further, the log reduction at 0.5 % in data set [2] (setting [4]) amounted to 0.6 ± 1. Moreover, the log reduction at 0.5 % in data set [2] (setting [7]) is 0.

For the compound `CC1=CCC(C(C)(C)O)CC1` (racemic) [(+-)-alpha-terpineol], the EACN in data set [1] is listed as -16.69. In addition, the log reduction at 0.5 % in data set [2] (setting [4]) was found to be 1.6.

Consider `C/C=C/c1ccc(O)c(OC)c1` [2-methoxy-4-[(1E)-1-propen-1-yl]phenol], for which the EACN in data set [1] is given as -42.88. Besides, in data set [2] (setting [4]), the log reduction at 0.5 % turned out to be 0.

On to `CC(C=O)Cc1ccc2c(c1)OCO2` (racemic) [(+-)-3-(1,3-benzodioxol-5-yl)-2-methylpropanal], for which, in data set [1], the EACN is on record as -11.56.

`CC(C)(C)C1CCC(=O)CC1` [4-(2-methyl-2-propanyl)cyclohexanone]: the EACN in data set [1] is on record as -3.78.

Turning to `Cc1ccc2c(c1)CC(C)(CO)C2` (racemic) [(+-)-2,5-dimethyl-2-indanmethanol], the EACN in data set [1] is recorded as -33.01.

Turning to `CC/C=C\CC1=C(C)CCC1=O` [3-methyl-2-[(2Z)-2-penten-1-yl]-2-cyclopenten-1-one], the EACN in data set [1] is -8.51.

Regarding `CC(C)=CCC/C(C)=C\CO` [(Z)-3,7-dimethyl-2,6-octadien-1-ol], in data set [1], the EACN is on record as -28.26. Also, the “Log reduction (Log CFU/mL) Base 3” value in data set [2] (setting [6]) came out at 4.9 Log CFU/mL. In data set [2] (setting [6]), the “Log reduction (Log CFU/mL) Base 4” value was 4.5 Log CFU/mL. For the same compound, the figures for the log reduction at 0.5 % in data set [2] (setting [4]), in data set [2] (setting [7]) and in data set [2] (setting [5]) were greater than 5.4, 0.5 and greater than 5.5, respectively.

Regarding `CCOC(=O)Cc1ccccc1` [ethyl phenylacetate], the EACN in data set [1] is -7.26.

For `CCCCCCCCCCC=O` [undecanal], the EACN in data set [1] was 4.59.

For the compound `O=COCCc1ccccc1` [2-phenylethyl formate], the EACN in data set [1] is reported as -6.21. The log reduction at 0.5 % in data set [2] (setting [4]) was found to be 0.3.

Regarding `CCCCCC1CCCC(=O)O1` (racemic) [(+-)-6-pentyltetrahydro-2H-pyran-2-one], the EACN in data set [1] is recorded as -13.27.

In the case of `CC(C)=CCC/C(C)=C\C=O` [(2Z)-3,7-dimethyl-2,6-octadienal OR (2E)-3,7-dimethyl-2,6-octadienal], the EACN in data set [1] is recorded as -5.09.

Take `CC(CO)c1ccccc1` (racemic) [(+-)-2-phenyl-1-propanol]: the EACN in data set [1] is reported as -29.67. Further, the log reduction at 0.5 % in data set [2] (setting [4]) is -0.3.

In the case of `CC/C(=C\C[C@H]1CC=C(C)C1(C)C)CO` [(-)-(2E)-2-ethyl-4-[(1R)-2,2,3-trimethyl-3-cyclopenten-1-yl]-2-buten-1-ol], in data set [1], the EACN is reported as -23.86. In addition, in data set [2] (setting [6]), the “Log reduction (Log CFU/mL) Base 3” value is given as “Insoluble”. For the same compound, in data set [2] (setting [6]), the “Log reduction (Log CFU/mL) Base 4” value is recorded as “Insoluble”. The log reduction at 0.5 % in data set [2] (setting [4]) is -0.2; in data set [2] (setting [7]) it was -1.

Take `CC/C=C\CC/C=C/CO` [(2E,6Z)-2,6-nonadien-1-ol]: the EACN in data set [1] is on record as -35.12. The “Log reduction (Log CFU/mL) Base 3” value in data set [2] (setting [6]) was 3.9 Log CFU/mL. Also, the “Log reduction (Log CFU/mL) Base 4” value in data set [2] (setting [6]) was greater than 4.5 Log CFU/mL. Besides, the log reduction at 0.5 % in data set [2] (setting [4]) is 5.6; in data set [2] (setting [7]) it was 0.5; in data set [2] (setting [5]), greater than 5.5.
